Assay results reported in patent publication US20260027068A1, “METHODS OF ADM[…]-KETAMINE” (Perception Neuroscience, Inc., priority 2022, published 2026).

Assay: Temperature (vital signs)
Conditions: 30 mg
Experimental: The Investigational Medicinal Product (IMP) R(−)-ketamine hydrochloride in sterile water for intravenous injection was investigated as an […] treatment of TRD. The International Union of Pure and Applied Chemistry (IUPAC) name is of the IMP is (2R)-2-(2-chlorophenyl)-2-(methylamino)cyclohexan-1-one. Subjects received the solution at either 30 mg or 60 mg dose, or a placebo. The IMP or placebo was administered on Day 1 as a single IV infusion via an electronic infusion pump over 40 minutes. The duration of study participation for each subject was up to 29 days including a screening period, a 3-day in-clinic visit, and 2 follow-up visits. 101 subjects were enrolled in approximately 20 study centers in the EU and the US.
Tympanic or temporal temperature, heart rate, blood pressure (SBP/DBP), respiratory rate, and SpO2 were assessed. Blood pressure and pulse measurements will be assessed with a completely automated device while the subject is supine or semi-supine. Manual techniques will be used only if an automated device is not available. Blood pressure and pulse measurements should be preceded by at least 5 minutes of rest for the subject in a quiet setting without distractions (e.g., television, cell phones). An abnormal blood pressure value at screening may be repeated once after 5 minutes of relaxation to determine the subject's eligibility. Blood pressure was recorded using the same arm and position (supine or semi-supine) throughout the study, where possible. Vital signs (to be taken before blood collection for laboratory tests) consisted of 1 pulse and 3 blood pressure measurements (3 consecutive blood pressure readings will be recorded at intervals of at least 1 minute). The average of the 3 blood pressure readings was recorded in the CRF. A pulse oximeter was used to measure peripheral capillary oxygen saturation (SpO2) continuously from pre-dose until 4-hours post-dose. A pulse oximeter was clipped onto the finger or foot of the subject, and light will be sent through the finger or foot and measured on the other side.
In these tables, baseline value is defined as the last non-missing value prior to study drug administration.

Structure (SMILES): CN[C@@]1(c2ccccc2Cl)CCCCC1=O.Cl [R(−)-ketamine, (2R)-2-(2-chlorophenyl)-2-(methylamino)cyclohexan-1-one]
- Temperature, Max (Day 1, 15 minutes): 37.2 °C
- Temperature, Mean (Day 1, 15 minutes): 36.57 °C
- Temperature, Median (Day 1, 15 minutes): 36.50 °C
- Temperature, Min (Day 1, 15 minutes): 36.4 °C
- Temperature, Max (Day 1, 40 minutes): 37.2 °C
- Temperature, Mean (Day 1, 40 minutes): 36.58 °C
- Temperature, Median (Day 1, 40 minutes): 36.60 °C
- Temperature, Min (Day 1, 40 minutes): 36.2 °C
- Temperature, Max (Day 1, 60 minutes): 37.2 °C
- Temperature, Mean (Day 1, 60 minutes): 36.57 °C
- Temperature, Median (Day 1, 60 minutes): 36.50 °C
- Temperature, Min (Day 1, 60 minutes): 36.3 °C
- Temperature, Max (Day 1, 2 hours): 37.2 °C
- Temperature, Mean (Day 1, 2 hours): 36.62 °C
- Temperature, Median (Day 1, 2 hours): 36.60 °C
- Temperature, Min (Day 1, 2 hours): 36.4 °C
- Temperature, Max (Day 1, 4 hours): 37.1 °C
- Temperature, Mean (Day 1, 4 hours): 36.57 °C
- Temperature, Median (Day 1, 4 hours): 36.60 °C
- Temperature, Min (Day 1, 4 hours): 36.3 °C
- Temperature, Max (Day 1, 6 hours): 37.2 °C
- Temperature, Mean (Day 1, 6 hours): 36.63 °C
- Temperature, Median (Day 1, 6 hours): 36.60 °C
- Temperature, Min (Day 1, 6 hours): 36.3 °C
- Temperature, Max (Day 2 - Discharge): 37.1 °C
- Temperature, Mean (Day 2 - Discharge): 36.59 °C
- Temperature, Median (Day 2 - Discharge): 36.60 °C
- Temperature, Min (Day 2 - Discharge): 35.9 °C
- Temperature, Max (Day 8): 36.8 °C
- Temperature, Mean (Day 8): 36.50 °C
- Temperature, Median (Day 8): 36.50 °C
- Temperature, Min (Day 8): 36.1 °C
- Temperature, Max (Day 15): 37.1 °C
- Temperature, Mean (Day 15): 36.60 °C
- Temperature, Median (Day 15): 36.60 °C
- Temperature, Min (Day 15): 36.2 °C
- Temperature, Change from Baseline, Max (to Day 1, 15 minutes): 0.4 °C
- Temperature, Change from Baseline, Mean (to Day 1, 15 minutes): 0.05 °C
- Temperature, Change from Baseline, Median (to Day 1, 15 minutes): 0.10 °C
- Temperature, Change from Baseline, Min (to Day 1, 15 minutes): −0.3 °C
- Temperature, Change from Baseline, Max (to Day 1, 40 minutes): 0.5 °C
- Temperature, Change from Baseline, Mean (to Day 1, 40 minutes): 0.05 °C
- Temperature, Change from Baseline, Median (to Day 1, 40 minutes): 0.00 °C
- Temperature, Change from Baseline, Min (to Day 1, 40 minutes): −0.2 °C
- Temperature, Change from Baseline, Max (to Day 1, 60 minutes): 0.5 °C
- Temperature, Change from Baseline, Mean (to Day 1, 60 minutes): 0.05 °C
- Temperature, Change from Baseline, Median (to Day 1, 60 minutes): 0.00 °C
- Temperature, Change from Baseline, Min (to Day 1, 60 minutes): −0.3 °C
- Temperature, Change from Baseline, Max (to Day 1, 2 hours): 0.7 °C
- Temperature, Change from Baseline, Mean (to Day 1, 2 hours): 0.08 °C
- Temperature, Change from Baseline, Median (to Day 1, 2 hours): 0.10 °C
- Temperature, Change from Baseline, Min (to Day 1, 2 hours): −0.2 °C
- Temperature, Change from Baseline, Max (to Day 1, 4 hours): 0.5 °C
- Temperature, Change from Baseline, Mean (to Day 1, 4 hours): 0.03 °C
- Temperature, Change from Baseline, Median (to Day 1, 4 hours): 0.00 °C
- Temperature, Change from Baseline, Min (to Day 1, 4 hours): −0.4 °C
- Temperature, Change from Baseline, Max (to Day 1, 6 hours): 0.9 °C
- Temperature, Change from Baseline, Mean (to Day 1, 6 hours): 0.09 °C
- Temperature, Change from Baseline, Median (to Day 1, 6 hours): 0.10 °C
- Temperature, Change from Baseline, Min (to Day 1, 6 hours): −0.4 °C
- Temperature, Change from Baseline, Max (to Day 2 - Discharge): 0.5 °C
- Temperature, Change from Baseline, Mean (to Day 2 - Discharge): 0.05 °C
- Temperature, Change from Baseline, Median (to Day 2 - Discharge): 0.00 °C
- Temperature, Change from Baseline, Min (to Day 2 - Discharge): −0.3 °C
- Temperature, Change from Baseline, Max (to Day 8): 0.6 °C
- Temperature, Change from Baseline, Mean (to Day 8): −0.03 °C
- Temperature, Change from Baseline, Median (to Day 8): 0.00 °C
- Temperature, Change from Baseline, Min (to Day 8): −0.7 °C
- Temperature, Change from Baseline, Max (to Day 15): 0.9 °C
- Temperature, Change from Baseline, Mean (to Day 15): 0.05 °C
- Temperature, Change from Baseline, Median (to Day 15): 0.00 °C
- Temperature, Change from Baseline, Min (to Day 15): −0.4 °C
